We go through five compounds from US20140323504A1, “Pyrazolo[4,3-c]Pyridine Derivatives As Kinase Inhibitors” (Cellzome Limited, priority 2011, published 2014).

One assay concerns the target T1, BTK (Homo sapiens, UniProt Q06187).
T1 construct: purchased ProQinase GmbH, Freiburg, Germany
The assay is described as follows: Radiometric protein kinase assay (33PanQinase, ProQinase), BTK. The format is biochemical. The settings on record: read-out: BTK enzyme assay IC50. The procedure:
(§1) A radiometric protein kinase assay (^33PanQinase® Activity Assay; ProQinase GmbH, Freiburg, Germany) was used for measuring the kinase activity of the protein kinases BLK, BTK, ITK and JAK3. All kinase assays were performed in 96-well FlashPlates™ from PerkinElmer (Boston, Mass., USA) in a 50 μl reaction volume. The reaction cocktail was pipetted in four steps in the following order: • 20 μl of assay buffer (standard buffer) • 5 μl of ATP solution (in H2O) • 5 μl of test compound (in 10% DMSO) • 10 μl of substrate/10 μl of enzyme solution (premixed)
(§2) The reaction cocktails were incubated at 30° C. for 60 minutes. The reaction was stopped with 50 μl of 2% (v/v) H3PO4, plates were aspirated and washed two times with 200 μl 0.9% (w/v) NaCl. Incorporation of ^33Pi was determined with a microplate scintillation counter (Microbeta, Wallac). All assays were performed with a BeckmanCoulter/SAGIAN™ Core System.

For assay [1], the system named is STAT5 phosphorylation in IL-2 stimulated YT cells. The assay is described as follows: Cell assay with washout of compounds (pSTAT5, YT cells, MSD). The settings on record: for IC50: Homo sapiens; for retention of activity after washing: up to 4 hours after washing. The class given is cell-based, human. The procedure: This time course experiment allows determination as to whether the pharmacological effect of the tested compounds persists over time even after the compound is removed from the cell samples.
Human YT cells were grown as described above. Cells were harvested by centrifugation and resuspended in RPMI0.5% heat-inactivated FBS. 3×10^5 cells were seeded in 60 μl per well in a round-bottomed 96 well plate (BD-Falcon, 353077).
Test compounds were dissolved in DMSO and a 1:3 dilution series (9 steps) was prepared. To generate a dose response curve, 30 μl of fourfold concentrated compound in 4% DMSO/RPMI/0.5% FBS were added to each cell sample in the 96 well plate resulting in a final DMSO concentration of 1% DMSO. Cells were incubated for one hour in a humidified incubator (37° C., 5% CO2). After incubation cells were washed twice by centrifugation and replacement of media (RPMI/0.5% FBS), with the exception of the time 0 plate. Washed cells were incubated for 30 min, 1, 2 and 4 hours in a humidified incubator (37° C., 5% CO2) prior to stimulation with IL-2. To each well 30 μl of a fourfold concentrated IL-2 solution (Recombinant human IL-2, Peprotech 200-02; 120 nM solution in RPMI) was added and incubated for 30 minutes at room temperature. Cells were lysed by adding 30 μl of 5× lysis buffer (MSD lysis buffer) and incubated for 10 minutes at 4° C. with gentle shaking.
The effect of compounds on STATS phosphorylation was determined in lysates using the MSD MULTI-SPOT® 96 4-spot phosphor-STAT5a,b whole cell lysatc kit (MesoScale Discovery, K150IGD-3) according to the manufacturer's protocol. Data were analysed in BioAssay using the nonlinear regression for a sigmoidal dose-response with a variable slope and IC50 values were determined.

Assay [2] concerns the target T2, BLK (Homo sapiens, UniProt P51451).
T2 construct: endogenous in cells; host or cells: 1:1 mix of Jurkat and Ramos cell lysates
The assay is described as follows: Kinobeads assay with quantitative mass spectrometry, BLK. The class given is binding. Conditions: Jurkat/Ramos lysate, read-out: BLK inhibition value (IC50). The procedure: (§3) Selected compounds of the present invention as described in the previous examples were tested in a Kinobeads™ assay as described (WO-A 2006/134056; Bantscheff et al., 2007. Nature Bioteclmol. 25, 1035-1044).
(§4) Compounds were incubated with cell lysate aliquots (1:1 mix of Jurkat and Ramos cell lysates) for 45 minutes at 4° C. and allowed to bind to the proteins in the lysate sample. Then the Kinobeads™ affinity matrix was added to capture proteins that were not interacting with the previously added compound. After this two hour incubation step at 4° C. beads were separated from the lysate and bead bound proteins were eluted in SDS sample buffer and subsequently separated by SDS-Polyacrylamide gel electrophoresis. The gel was stained with colloidal Coomassie and stained areas of each gel lane were cut out and subjected to in-gel proteolytic digestion with trypsin. Peptides originating from the different gel areas were labeled with isobaric tagging reagents (TMT reagents, Thermofisher) as shown in Table 7. The TMT reagents are a set of multiplexed, amine-specific, stable isotope reagents that can label peptides in up to six different biological samples enabling simultaneous identification and quantitation of peptides. The combined samples were fractionated using reversed-phase chromatography at pH 11 and fractions were subsequently analyzed with a nano-flow liquid chromatography system coupled online to a tandem mass spectrometer (LC-MSMS) experiment followed by reporter ion quantification in the MSMS spectra (Ross et al., 2004. Mol. Cell. Proteomics 3(12):1154-1169; Dayon et al., 2008. Anal. Chem. 80(8):2921-2931; Thompson et al., 2003. Anal. Chem. 75(8):1895-1904). Further experimental protocols can be found in WO2006/134056 and previous publications (Bantscheff et al., 2007. Nat. Biotechnol. 25, 1035-1044; Bantscheff et al., 2011. Nat. Biotechnol. 29(3):255-265).

The next assay concerns the target T3, TEC (Homo sapiens, UniProt P42680).
T3 construct: endogenous in cells; host or cells: 1:1 mix of Jurkat and Ramos cell lysates
T3 sequence (P42680 1-631): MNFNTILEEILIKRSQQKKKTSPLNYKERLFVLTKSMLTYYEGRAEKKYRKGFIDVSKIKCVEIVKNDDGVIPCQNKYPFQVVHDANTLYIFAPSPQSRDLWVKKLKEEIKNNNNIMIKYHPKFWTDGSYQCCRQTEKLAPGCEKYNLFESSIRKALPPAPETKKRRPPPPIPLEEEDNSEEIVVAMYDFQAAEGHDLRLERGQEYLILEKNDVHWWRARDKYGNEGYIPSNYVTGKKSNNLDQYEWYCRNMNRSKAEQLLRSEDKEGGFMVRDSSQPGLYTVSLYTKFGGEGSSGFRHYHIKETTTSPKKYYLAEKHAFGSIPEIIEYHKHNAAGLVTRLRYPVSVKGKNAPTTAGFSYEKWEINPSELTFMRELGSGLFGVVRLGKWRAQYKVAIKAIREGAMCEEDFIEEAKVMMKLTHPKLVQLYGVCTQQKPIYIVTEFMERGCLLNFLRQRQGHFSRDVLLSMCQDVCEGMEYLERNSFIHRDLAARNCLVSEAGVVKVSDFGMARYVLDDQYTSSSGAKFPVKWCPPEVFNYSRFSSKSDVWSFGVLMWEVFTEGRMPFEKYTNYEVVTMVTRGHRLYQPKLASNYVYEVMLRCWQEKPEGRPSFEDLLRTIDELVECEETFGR
The assay can be described thus: Kinobeads assay with quantitative mass spectrometry, TEC. The class given is binding. The settings on record: Jurkat/Ramos lysate, read-out: TEC inhibition value (IC50). The procedure: as §3
as §4, with “The gel was stained with colloidal Coomassie and stained areas of each gel lane were cut out and subjected to in-gel proteolytic digestion with trypsin. Peptides originating from the different gel areas were labeled with isobaric tagging reagents (TMT reagents, Thermofisher) as shown in Table 7.” left out, “Further experimental protocols can be found in WO2006/134056 and previous publications (Bantscheff et al., 2007. Nat. Biotechnol. 25, 1035-1044; Bantscheff et al., 2011. Nat. Biotechnol. 29(3):255-265).” left out

The target of assay [3] is T2, BLK. The assay can be described thus: Radiometric protein kinase assay (33PanQinase, ProQinase), BLK. The settings on record: ATP at apparent Km; read-out: BLK enzyme assay IC50. The class given is biochemical. The procedure:
as §1, §2

Where [4] appears, read: 0.5 h, read-out: pSTAT5 inhibition pIC50, 30 min after washout, IL-2 stimulated YT cells, 30 min after washout (converted).
[5] abbreviates: 2 h, read-out: pSTAT5 inhibition pIC50, 2 hours after washout, IL-2 stimulated YT cells, 2 hours after washout (converted).
The mark [6] stands for this setting: 4 h, IL-2 stimulated YT cells, 4 hours after washout, read-out: pSTAT5 inhibition pIC50, 4 hours after washout (converted).

Where two headings read alike, the source gives them in different places.

T2 sequence (P51451 whole entry): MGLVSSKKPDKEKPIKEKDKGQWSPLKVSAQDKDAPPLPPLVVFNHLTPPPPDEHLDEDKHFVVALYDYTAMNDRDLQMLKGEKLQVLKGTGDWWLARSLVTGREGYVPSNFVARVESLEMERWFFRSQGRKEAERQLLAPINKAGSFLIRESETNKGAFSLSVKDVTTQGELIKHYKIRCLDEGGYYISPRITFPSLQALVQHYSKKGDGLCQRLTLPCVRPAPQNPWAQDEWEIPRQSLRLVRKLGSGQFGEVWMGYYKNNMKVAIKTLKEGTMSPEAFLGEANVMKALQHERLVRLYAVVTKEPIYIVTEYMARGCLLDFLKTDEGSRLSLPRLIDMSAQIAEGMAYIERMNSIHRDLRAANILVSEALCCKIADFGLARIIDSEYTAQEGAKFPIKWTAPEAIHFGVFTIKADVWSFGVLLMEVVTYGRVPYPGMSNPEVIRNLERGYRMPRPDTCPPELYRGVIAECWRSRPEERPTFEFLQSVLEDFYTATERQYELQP
T1 sequence (Q06187 whole entry): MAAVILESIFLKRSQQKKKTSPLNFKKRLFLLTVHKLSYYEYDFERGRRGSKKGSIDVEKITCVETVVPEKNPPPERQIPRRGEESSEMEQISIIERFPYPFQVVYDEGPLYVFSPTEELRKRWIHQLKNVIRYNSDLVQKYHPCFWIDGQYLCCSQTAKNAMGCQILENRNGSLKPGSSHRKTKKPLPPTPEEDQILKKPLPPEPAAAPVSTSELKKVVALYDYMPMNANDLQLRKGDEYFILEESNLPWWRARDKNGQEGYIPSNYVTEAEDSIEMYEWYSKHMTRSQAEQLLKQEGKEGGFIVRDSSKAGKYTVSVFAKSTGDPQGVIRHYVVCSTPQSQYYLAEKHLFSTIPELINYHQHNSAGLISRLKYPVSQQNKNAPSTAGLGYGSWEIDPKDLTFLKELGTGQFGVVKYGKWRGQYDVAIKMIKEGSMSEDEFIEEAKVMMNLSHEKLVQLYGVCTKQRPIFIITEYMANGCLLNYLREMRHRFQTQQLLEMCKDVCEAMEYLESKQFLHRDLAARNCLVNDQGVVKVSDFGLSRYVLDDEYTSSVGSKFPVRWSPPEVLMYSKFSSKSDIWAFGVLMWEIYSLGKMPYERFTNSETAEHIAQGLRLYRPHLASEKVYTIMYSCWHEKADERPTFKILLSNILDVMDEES

Consider `C#CC(=O)Nc1cccc(Cn2ncc3cnc(Nc4cnn(C)c4)nc32)c1` [Example 3, N-(3-((6-((1-Methyl-1H-pyrazol-4-yl)amino)-1H-pyrazolo[3,4-d]pyrimidin-1-yl)methyl)phenyl)propiolamide], for which the IC50 on BTK is 1 nM; in assay [1] (setting [4]) it was 631 nM; in assay [1] (setting [5]), 79.4 nM; in assay [1] (setting [6]), 126 nM; on BLK [2], 12 nM. Further, in assay [1] (YT cells), the “retention of activity after washing” value is reported as “retain activity for up to 4 hours after washing with some drop in activity”.
Turning to `C=CC(=O)Nc1cc(Cn2ncc3cnc(Nc4cnn(C)c4)nc32)ccc1F` [Example 2, […]], the IC50 on TEC was 34 nM; at BTK, 323 nM; on BLK [3] it was 2000 nM; on BLK [2] it was 406 nM.
As for `CC(=O)Nc1cccc(Cn2ncc3cnc(Nc4cnn(C)c4)nc32)c1` [compound 2, N-(3-((6-((1-methyl-1H-pyrazol-4-yl)amino)-1H-pyrazolo[3,4-d]pyrimidin-1-yl)methyl)phenyl)acetamide, reference compound], the IC50 at BTK turned out to be 2000 nM. In addition, the “activity 30 minutes after the washing of cells” value in assay [1] (YT cells, 30 minutes after washing) is given as “completely lost”.
Take `C=CS(=O)(=O)Nc1cccc(Cn2ncc3cnc(Nc4cnn(C)c4)nc32)c1` [Example 4, N-(3-((6-((1-Methyl-1H-pyrazol-4-yl)amino)-1H-pyrazolo[3,4-d]pyrimidin-1-yl)methyl)phenyl)ethenesulfonamide]: the IC50 on BTK came to 20 nM.
On to `C=CC(=O)Nc1cccc(Cn2ncc3cnc(Nc4cnn(C)c4)nc32)c1` [Example 1, N-(3-((6-((1-Methyl-1H-pyrazol-4-yl)amino)-1H-pyrazolo[3,4-d]pyrimidin-1-yl)methyl)phenyl)acrylamide], for which the IC50 was 12 nM on TEC; 20 nM at BTK; 200 nM in assay [1] (setting [4]); 63.1 nM in assay [1] (setting [5]); 100 nM in assay [1] (setting [6]); 20 nM at BLK [2]. In assay [1] (YT cells), the “retention of activity after washing” value is on record as “retain activity for up to 4 hours after washing with some drop in activity”.
